Reference: patent US20160168140A1, “HETEROCYCLIC COMPOUNDS AS ANTIBIOTIC POTENTIATORS” (priority 2014, published 2016)

Tested on: Acinetobacter baumannii (Ab23)
Assay: MIC shift assay of antibiotics (broth microdilution)
Type: cell-based
Conditions: compound concentration 1 μM; fold shift of colistin MIC; nc = no changeover or no shift
Method: Minimum inhibitory concentration (MIC) shift assays were performed to determine if the test compounds could alter the MIC of existing antibacterial drugs (e.g., ciprofloxacin and colistin) for E. coli, Acinetobacter baumannii, Klebsiella pneumoniae, Pseudomonas aeruginosa, and Enterobacter cloacae. The MIC shift assay is based on the standard broth microdilution MIC determination protocol of Wiegand et al, Nat Protoc. 3(2):163-75 (2008), with slight modifications that allow for the screening of up to seven test compounds in a single plate.
On the day before an assay, bacteria were grown overnight in cation-adjusted Mueller Hinton broth (CAMHB; Teknova, Hollister, Calif.) at 37° C. in an orbital shaker and sub-cultured at a 1:200 dilution the following morning. The cells were grown to OD600=0.5 to 0.8 and then diluted to OD600=0.01. From a serial dilution of each antibiotic at (50 μL of 2× concentrated stock solutions) several concentrations were added to the wells of a sterile, transparent round-bottom 96-well plate (Phenix Research Products, Candler, N.C.), and diluted cells (50 μL) were added to the plates for a starting OD600 of 0.005. […] A row of wells lacking test compound but containing the antibiotic was used to determine the MIC of that antibiotic alone. A column of wells lacking both antibiotic and test compound served as a growth control, and an additional column containing only CAMHB was included as a sterile blank control.
The plates were incubated for 18 to 20 h at 37° C. in an orbital shaker, and the cell density (OD600) was determined the following day in a microplate reader (PolarStar Optima, BMG Labtech). The MIC shift was determined by comparing the MIC of the antibiotic alone to the MIC of the antibiotic plus test compound.

Row | Compound | colistin MIC shift, Ab23 at (compd concentration)
1 | FC(F)(F)c1cccc(-c2c[nH]c3cc(Cl)c(Cl)cc23)c1 [compound 431] | 4x (1 μM);

Same assay, conditions: compound concentration 2 μM; fold shift of colistin MIC; nc = no changeover or no shift

Row | Compound | colistin MIC shift, Ab23 at (compd concentration)
2 | CN(C)CCCNc1nc(-c2cc(-c3ccccc3)cc(C(F)(F)F)c2)nc2c(Cl)cccc12 [compound 340] | 8-16x
3 | Cc1cccc2c(NCCCN(C)C)nc(-c3cc(-c4ccccc4F)cc(C(F)(F)F)c3)nc12 [compound 341] | 8-16x
4 | Cc1cccc2c(NCCCN(C)C)nc(-c3cccc(-c4cc(F)cc(C(F)(F)F)c4)c3)nc12 [compound 344] | 8-16x
5 | Cc1cccc2c(NCCCN(C)C)nc(-c3cc(-c4cncs4)cc(C(F)(F)F)c3)nc12 [compound 346] | 8-16x
6 | Cc1cccc2c(NCCCN3CCCCC3)nc(-c3cc(Br)cc(C(F)(F)F)c3)nc12 [compound 347] | 8-16x
7 | CNCCCN(C)c1nc(-c2cc(-c3ccccc3)cc(C(F)(F)F)c2)nc2c(C)cccc12 [compound 349] | 8-16x
8 | CNCCCN(C)c1nc(-c2cccc(-c3cc(F)cc(C(F)(F)F)c3)c2)nc2c(Cl)cccc12 [compound 350] | 8-16x
9 | CN(C)CCCNc1nc(-c2cccc(-c3ccccc3Cl)c2)nc2c(Cl)cccc12 [compound 351] | 8-16x
10 | CCN(CC)CCCNc1nc(-c2cc(Br)cc(C(F)(F)F)c2)nc2c(C)cccc12 [compound 352] | 8-16x
11 | Cc1cccc2c(NCCCN3CCN(C)CC3)nc(-c3cc(Br)cc(C(F)(F)F)c3)nc12 [compound 354] | 8-16x
12 | Cc1cccc2c(NCCCN(C)C)nc(-c3cccc(-c4ccc(C(F)(F)F)c(F)c4)c3)nc12 [compound 355] | 8-16x
13 | CN(C)CC(=O)n1cc(-c2ccc(Cl)c(Cl)c2)c2cc(Cl)ccc21 [compound 362] | 16x
14 | Clc1ccc(/C=C/c2c[nH]c3ccc(Br)cc23)cc1Cl [compound 363] | ≧16x (2 μM)
15 | Clc1ccc2[nH]cc(/C=C/c3ccc(Cl)c(Cl)c3)c2c1 [compound 365] | ≧16x (2 μM)
16 | Fc1ccc2c(/C=C/c3cccc(Cl)c3Cl)c[nH]c2c1 [compound 383] | ≧16x (2μM)
17 | O=C(Nc1ccc(Cl)c(Cl)c1)c1c[nH]c2ccc(Br)cc12 [compound 420] | 16x
18 | O=C(Nc1ccc(Cl)c(Cl)c1)c1c[nH]c2cc(Br)ccc12 [compound 424] | 4x
19 | FC(F)(F)c1cccc(-c2c[nH]c3ccc(Cl)cc23)c1 [compound 430] | 16x
20 | FC(F)(F)c1cccc(-c2c[nH]c3cc(Cl)c(Cl)cc23)c1 [compound 431] | ≧16x (2 μM)
21 | Clc1ccc(-c2c[nH]c3cc(Cl)c(Cl)cc23)cc1Cl [compound 432] | 8x

Same assay, conditions: compound concentration 4 μM; fold shift of colistin MIC; nc = no changeover or no shift

Row | Compound | colistin MIC shift, Ab23 at (compd concentration)
22 | CN(C)CCCn1cc(/C=C/c2ccc(Cl)c(Cl)c2)c2cc(Br)ccc21 [compound 356] | 16-64x
23 | CN1CCN(CCn2cc(/C=C/c3ccc(Cl)c(Cl)c3)c3ccc(F)cc32)CC1 [compound 357] | 4-8x
24 | CN(C)CCCn1cc(-c2ccc(Cl)c(Cl)c2)c2cc(Cl)ccc21 [compound 359] | 16x
25 | Clc1ccc(/C=C/c2c[nH]c3ccc(Br)cc23)cc1Cl [compound 363] | 32-64x (4 μM);
26 | FC(F)(F)c1ccc2c(/C=C/c3ccc(Cl)c(Cl)c3)c[nH]c2c1 [compound 364] | 32-64x
27 | Clc1ccc2[nH]cc(/C=C/c3ccc(Cl)c(Cl)c3)c2c1 [compound 365] | 16-64x (4 μM);
28 | Fc1ccc2c(/C=C/c3ccc(Cl)c(Cl)c3)c[nH]c2c1 [compound 366] | 16-32x
29 | Clc1ccc(/C=C/c2c[nH]c3cc(Br)ccc23)cc1Cl [compound 367] | 16-32x
30 | Fc1ccc2[nH]cc(/C=C/c3ccc(Cl)c(Cl)c3)c2c1 [compound 368] | 16-32x
31 | FC(F)(F)c1ccc2[nH]cc(/C=C/c3ccc(Cl)c(Cl)c3)c2c1 [compound 369] | 32x
32 | Cc1ccc2[nH]cc(/C=C/c3ccc(Cl)c(Cl)c3)c2c1 [compound 370] | 32x
33 | FC(F)(F)c1cccc2[nH]cc(/C=C/c3ccc(Cl)c(Cl)c3)c12 [compound 371] | 32x
34 | Fc1cccc2[nH]cc(/C=C/c3ccc(Cl)c(Cl)c3)c12 [compound 372] | 8-32x
35 | COc1ccc2[nH]cc(/C=C/c3ccc(Cl)c(Cl)c3)c2c1 [compound 373] | 8-16x
36 | Clc1ccc(/C=C/c2c[nH]c3cc(Cl)c(Cl)cc23)cc1Cl [compound 374] | 16x
37 | N#Cc1ccc2[nH]cc(/C=C/c3ccc(Cl)c(Cl)c3)c2c1 [compound 375] | 2x
38 | Fc1ccc2c(/C=C/c3ccc(Br)c(Br)c3)c[nH]c2c1 [compound 378] | 16-32 x
39 | O=[N+]([O-])c1ccc2[nH]cc(/C=C/c3ccc(Cl)c(Cl)c3)c2c1 [compound 379] | 8x
40 | O=[N+]([O-])c1ccc2[nH]cc(/C=C\c3ccc(Cl)c(Cl)c3)c2c1 [compound 380] | 8x

Row | Compound | colistin MIC shift, Ab23 at (compd concentration)
41 | Fc1ccc2c(/C=C/c3cccc(Cl)c3Cl)c[nH]c2c1 [compound 383] | 32x (4 μM);
42 | Fc1ccc2c(/C=C/c3cc(Cl)ccc3Cl)c[nH]c2c1 [compound 384] | 8-16x
43 | Fc1ccc2c(/C=C/c3ccc(F)c(C(F)(F)F)c3)c[nH]c2c1 [compound 385] | 8-16 x
44 | Fc1ccc2c(/C=C/c3cc(C(F)(F)F)cc(C(F)(F)F)c3)c[nH]c2c1 [compound 386] | 16x
45 | Fc1ccc2c(/C=C/c3ccc(C(F)(F)F)cc3)c[nH]c2c1 [compound 387] | 16x
46 | Fc1ccc2c(/C=C/c3cc(Cl)cc(Cl)c3)c[nH]c2c1 [compound 388] | 16x
47 | Fc1ccc2c(/C=C/c3cc(Br)cc(Br)c3)c[nH]c2c1 [compound 389] | 16x
48 | FC(F)(F)c1ccc2c(-c3ccc(Cl)c(Cl)c3)n[nH]c2c1 [compound 390, 3-(3,4-dichlorophenyl)-6-(trifluoromethyl)-1H-indazole] | 16x
49 | FC(F)(F)c1ccc2c(-c3ccc(Cl)c(Cl)c3)nn(Cc3ccc(Cl)cc3)c2c1 [compound 391, 1-(4-chlorobenzyl)-3-(3,4-dichlorophenyl)-6-(trifluoromethyl)-1H-indazole] | 16x
50 | O=C(c1ccc(Cl)c(Cl)c1)n1nc(-c2ccc(Cl)c(Cl)c2)c2ccc(C(F)(F)F)cc21 [compound 392, (3,4-dichlorophenyl)(3-(3,4-dichlorophenyl)-6-(trifluoromethyl)-1H-indazol-1-yl)methanone] | 16x
51 | Fc1ccc2c(/C=C/c3ccc(C(F)(F)F)c(Cl)c3)c[nH]c2c1 [compound 393] | 16x
52 | Fc1ccc2c(/C=C/c3ccc(OC(F)(F)F)cc3)c[nH]c2c1 [compound 394] | 8x
53 | Clc1ccc2[nH]cc(-c3ccc(Cl)c(Cl)c3)c2c1 [compound 395, 5-Chloro-3-(3,4-dichlorophenyl)-1H-indole] | 8x
54 | Fc1ccc2c(/C=C/c3cccc(C(F)(F)F)c3)c[nH]c2c1 [compound 396] | 8x
55 | Fc1ccc2c(/C=C/c3cc(Cl)c(Cl)c(Cl)c3)c[nH]c2c1 [compound 397] | 8x
56 | FC(F)(F)c1cccc(-c2ccc3[nH]ccc3c2)c1 [compound 398, 5-(3-(trifluoromethyl)phenyl)-1H-indole] | 4x
57 | Clc1ccc(CCc2c[nH]c3ccc(Br)cc23)cc1Cl [compound 411] | 8x
58 | Clc1ccc(NCc2c[nH]c3ccc(Br)cc23)cc1Cl [compound 418] | 16 x
59 | FC(F)(F)c1cc(Cl)cc(-c2c[nH]c3cc(Cl)c(Cl)cc23)c1 [compound 434] | 32x

Same assay, conditions: compound concentration 8 μM; fold shift of colistin MIC; nc = no changeover or no shift

Row | Compound | colistin MIC shift, Ab23 at (compd concentration) [x]
60 | O=C(Nc1cccc(C(F)(F)F)c1)c1c[nH]c2ccc(Br)cc12 [compound 428] | 4

Same assay, conditions: compound concentration 10 μM; fold shift of colistin MIC; nc = no changeover or no shift

Row | Compound | colistin MIC shift, Ab23 at (compd concentration) [x]
61 | Fc1cccc(/C=C/c2c[nH]c3cc(F)ccc23)c1 [compound 399] | 8
62 | O=C(O)Cn1cc(/C=C/c2ccc(Cl)c(Cl)c2)c2ccc(F)cc21 [compound 416] | 4
63 | O=C(O)CCn1cc(/C=C/c2ccc(Cl)c(Cl)c2)c2ccc(F)cc21 [compound 417] | 8
